System: NOMO1
Experiment: cell viability relative to DMSO control; higher = less cytotoxic
Settings: 48 h
How it was run: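 Viability, reported as a per-plate percentage of DMSO wells with cell-free wells as background, came from CellTiter-Glo One luminescence. Reading took place after 48 h at 37°C. Before that, NOMO1 or SEM (500 cells/well) or P12-Ichikawa (1000 cells/well) leukemia cells, adapted for at least four passages in each medium, were seeded in 1536-well plates (5 μl) and pin-dosed with library compounds in DMSO, 47 μM to 0.79 nM over 11 threefold points.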

[1] = RPMI 5 mM glucose + 10% FBS, 0.000781 µM
[2] = RPMI 5 mM glucose + 10% FBS, 0.00234 µM
[3] = RPMI 5 mM glucose + 10% FBS, 0.00702 µM
[4] = RPMI 5 mM glucose + 10% FBS, 0.0211 µM
[5] = RPMI 5 mM glucose + 10% FBS, 0.0632 µM
[6] = RPMI 5 mM glucose + 10% FBS, 0.19 µM
[7] = RPMI 5 mM glucose + 10% FBS, 0.569 µM
[8] = RPMI 5 mM glucose + 10% FBS, 1.71 µM
[9] = RPMI 5 mM glucose + 10% FBS, 5.12 µM
[10] = RPMI 5 mM glucose + 10% FBS, 15.4 µM
[11] = RPMI 5 mM glucose + 10% FBS, 46.1 µM
[12] = RPMI 5 mM glucose + 10% dialyzed FBS, 0.000781 µM
[13] = RPMI 5 mM glucose + 10% dialyzed FBS, 0.00234 µM
[14] = RPMI 5 mM glucose + 10% dialyzed FBS, 0.00702 µM
[15] = RPMI 5 mM glucose + 10% dialyzed FBS, 0.0211 µM
[16] = RPMI 5 mM glucose + 10% dialyzed FBS, 0.0632 µM
[17] = RPMI 5 mM glucose + 10% dialyzed FBS, 0.19 µM
[18] = RPMI 5 mM glucose + 10% dialyzed FBS, 0.569 µM
[19] = RPMI 5 mM glucose + 10% dialyzed FBS, 1.71 µM
[20] = RPMI 5 mM glucose + 10% dialyzed FBS, 5.12 µM
[21] = RPMI 5 mM glucose + 10% dialyzed FBS, 15.4 µM
[22] = RPMI 5 mM glucose + 10% dialyzed FBS, 46.1 µM
[23] = HPLM + 10% dialyzed FBS, 0.000781 µM
[24] = HPLM + 10% dialyzed FBS, 0.00234 µM
[25] = HPLM + 10% dialyzed FBS, 0.00702 µM
[26] = HPLM + 10% dialyzed FBS, 0.0211 µM
[27] = HPLM + 10% dialyzed FBS, 0.0632 µM
[28] = HPLM + 10% dialyzed FBS, 0.19 µM
[29] = HPLM + 10% dialyzed FBS, 0.569 µM
[30] = HPLM + 10% dialyzed FBS, 1.71 µM
[31] = HPLM + 10% dialyzed FBS, 5.12 µM
[32] = HPLM + 10% dialyzed FBS, 15.4 µM
[33] = HPLM + 10% dialyzed FBS, 46.1 µM

Structure (SMILES)	cell viability [1] [%]	cell viability [2] [%]	cell viability [3] [%]	cell viability [4] [%]	cell viability [5] [%]	cell viability [6] [%]	cell viability [7] [%]	cell viability [8] [%]	cell viability [9] [%]	cell viability [10] [%]	cell viability [11] [%]	cell viability [12] [%]	cell viability [13] [%]	cell viability [14] [%]	cell viability [15] [%]	cell viability [16] [%]	cell viability [17] [%]	cell viability [18] [%]	cell viability [19] [%]	cell viability [20] [%]	cell viability [21] [%]	cell viability [22] [%]	cell viability [23] [%]	cell viability [24] [%]	cell viability [25] [%]	cell viability [26] [%]	cell viability [27] [%]	cell viability [28] [%]	cell viability [29] [%]	cell viability [30] [%]	cell viability [31] [%]	cell viability [32] [%]	cell viability [33] [%]
COC1(C[S+]([O-])c2ccccc2)CCN(CCc2c[nH]c3ccc(F)cc23)CC1 (configuration not stated)	107	113	106	106	117	117	116	112	113	103	96.2	111	99.8	115	102	112	111	110	99.8	98.3	103	90.3											
Cc1ncc([N+](=O)[O-])n1CCO												113	113	125	131	137	140	132	142	129	136	130	112	122	126	145	130	122	120	137	116	142	120
C[S+]([O-])c1ccc(-c2nc(-c3ccc(F)cc3)c(-c3ccncc3)[nH]2)cc1 (configuration not stated)	80	90.4	105	95	113	96.3	106	75.9	29.7	4.04	2.28	83.5	86.2	87.3	98.2	99.1	86.5	99.1	64.6	34.6	4.16	2.47	78.8	101	108	106	106	117	106	66.2	35.1	3.41	2.33
Nc1nc(OCc2ccccc2)c2nc[nH]c2n1	95.7	117	103	109	113	101	133	107	108	108	115	110	119	123	118	128	125	122	110	116	129	123											
Cc1cc(O)c2c(c1)C(=O)c1cc(O)cc(O)c1C2=O	85.8	104	107	88.1	92.1	88	97.2	85.3	90.4	85.9	82.5	90.5	99	109	96.9	110	94.6	92.1	92	95.7	90.3	87.4	105	102	117	104	99.3	118	98.8	121	96.2	98.4	87.7
CC(C)[C@H](CO)Nc1nc(Nc2cccc(Cl)c2)c2ncn(C(C)C)c2n1												111	124	127	125	124	112	123	84.2	12.6	6.44	3.06											
OC1=CC=C(C=C1)\C2=C\C(=O)C3=C(O2)C=C(O)C=C3O	108	112	108	108	105	105	97.9	96	107	88.9	53.6	108	101	114	104	104	102	116	99.3	97.8	80	54.6	102	111	104	107	103	126	89.2	107	98.1	84.1	57.2
COC1=CC=C(C=C1)C2CC(=N/N2C3=CC=C(C=C3)[S+](N)([O-])=O)\C4=CC=CC=C4 (configuration not stated)	85.9	85.1	92.5	102	102	98.3	94.6	89.5	35.2	4.7	2.12	82.7	93.8	85.6	103	98	86.2	93.3	59	43.3	4.24	1.96	82.7	91.2	98.8	92.9	97.4	97.1	94.9	56.1	24.4	3.71	1.86
NC\1=N\C(=O)N(\C=C1)[C@H]\2[C@H](O)[C@H](O)C(=C2F)\CO	86.3	112	117	106	107	88.2	93	83.5	54.6	12.6	7.41	89.1	96.9	104	111	109	107	111	86.4	27.7	10.2	7.62	78.5	111	105	101	110	90.8	94.7	67.5	32.1	33.6	11.3
